What all share (assay type): functional
Test [1] concerns Streptococcus pyogenes. Put plainly: Antibacterial activity against Streptococcus pyogenes ATCC 19615 after 24 hrs by agar dilution method. The settings on record: ATCC 19615, 24 h. (In general: In agar dilution, organisms are placed on agar that contains the substance at set levels.)
Test [2] deals with Staphylococcus aureus. Put plainly: Antibacterial activity against methicillin-resistant Staphylococcus aureus 562 infected orally dosed Swiss albino mouse after 7 days. The note with it: po, 168 h.
Test [3] concerns Enterococcus faecalis. Put plainly: Antibacterial activity against Enterococcus faecalis ATCC 29212 after 24 hrs by agar dilution method. The note with it: ATCC 29212, 24 h.
Test [4] has as its system Staphylococcus aureus. Put plainly: Antibacterial activity against methicillin-resistant Staphylococcus aureus 33 after 24 hrs by agar dilution method.
Test [5] deals with Staphylococcus aureus. Put plainly: Antibacterial activity against Staphylococcus aureus ATCC 25923 after 24 hrs by agar dilution method. The note with it: ATCC 25923, 24 h.
For test [6], the system named is Streptococcus pneumoniae. Put plainly: Antibacterial activity against Streptococcus pneumoniae ATCC 6303 after 24 hrs by agar dilution method. The note with it: ATCC 6303, 24 h.
The test system of test [7] is Enterococcus faecium. Put plainly: Antibacterial activity against vancomycin-resistant Enterococcus faecium 6A after 24 hrs by agar dilution method.
The subject of test [8] is Staphylococcus aureus. Put plainly: Antibacterial activity against methicillin-resistant Staphylococcus aureus 562 after 24 hrs by agar dilution method.
The subject of test [9] is Haemophilus influenzae. Put plainly: Antibacterial activity against Haemophilus influenzae.
Test [10] deals with Moraxella catarrhalis. Put plainly: Antibacterial activity against Moraxella catarrhalis.
The test system of test [11] is Mycobacterium tuberculosis. Put plainly: Antibacterial activity against sensitive Mycobacterium tuberculosis.
The subject of test [12] is Staphylococcus aureus. Put plainly: Antibacterial activity against methicillin-resistant Staphylococcus aureus 562 infected sc dosed Swiss albino mouse after 7 days. The settings on record: 168 h.

This note sets out measurements from ChEMBL document CHEMBL1138308, “Synthesis and antibacterial activity of potent heterocyclic oxazolidinones and the identification of RBx 8700” (2007).

≈ marks a conversion by molar mass, not a printed value.

As usually defined, the MIC is the smallest concentration in the dilution series that meets the test's criterion for growth inhibition. What is called ED50 is the dose at which the effect has come halfway, by size or by number of responders. Lower therefore signals greater potency. Take `CC(=O)NC[C@H]1CN(c2ccc(N3CCN(C(=O)/C=C/c4ccc([N+](=O)[O-])o4)CC3)c(F)c2)C(=O)O1`: the minimal inhibitory concentration (MIC) in test [1] was < 0.125 µg/mL; in [3] it was 0.5 µg/mL (≈ 0.997 µM); in [4], 0.25 µg/mL (≈ 0.499 µM); in [5], 0.5 µg/mL (≈ 0.997 µM); in test [6], 0.5 µg/mL (≈ 0.997 µM); in test [7], < 0.125 µg/mL. The MIC in [8] was determined as 0.25 µg/mL (≈ 0.499 µM). Further, the 50% effective dose (ED50) in [2] is > 25 mg/kg.
As to `CC(=O)NC[C@H]1CN(c2ccc(N3CCN(C(=O)/C=C/c4ccc([N+](=O)[O-])s4)CC3)c(F)c2)C(=O)O1`, the minimum inhibitory concentration (MIC) was found to be 0.5 µg/mL (≈ 0.966 µM) in [1]; 1 µg/mL (≈ 1.93 µM) in test [3]; 0.5 µg/mL (≈ 0.966 µM) in [4]; 0.5 µg/mL (≈ 0.966 µM) in test [5]; 1 µg/mL (≈ 1.93 µM) in test [6]; 0.5 µg/mL (≈ 0.966 µM) in [7]. In [8], this compound showed an MIC of 1 µg/mL (≈ 1.93 µM). For the same compound, the median effective dose (ED50) in [2] was > 25 mg/kg.
What is called MIC90 is an inhibitory concentration at the 90% level, which refers to growth in some studies and to a panel of isolates in others. A lower MIC90 goes with higher susceptibility. As for `CC(=O)NC[C@H]1CN(c2ccc(N3CCN(c4ccc([N+](=O)[O-])s4)CC3)c(F)c2)C(=O)O1`, the minimum inhibitory concentration (MIC) was 0.125 µg/mL (≈ 0.27 µM) in test [1]; 0.25 µg/mL (≈ 0.539 µM) in test [3]; 0.25 µg/mL (≈ 0.539 µM) in [4]; 0.25 µg/mL (≈ 0.539 µM) in test [5]; 0.125 µg/mL (≈ 0.27 µM) in test [6]; 0.25 µg/mL (≈ 0.539 µM) in test [7]. Moreover, the MIC in test [8] was found to be 0.25 µg/mL (≈ 0.539 µM). Further, the 50% effect level in [2] (ED50) was put at a dose of 11.2 mg/kg. Also, the MIC50 worked out at 8 µg/mL (≈ 17.3 µM) in test [9] and 2 µg/mL (≈ 4.32 µM) in test [10]. Also, the MIC90 in [11] is 0.25 µg/mL (≈ 0.539 µM).
On to `CC(=O)NC[C@H]1CN(c2ccc(N3CCN(C(C)c4ccc([N+](=O)[O-])o4)CC3)c(F)c2)C(=O)O1` (stereo partly drawn), for which the minimum inhibitory concentration (MIC) in test [1] came to 0.06 µg/mL (≈ 0.126 µM); in test [3], 0.125 µg/mL (≈ 0.263 µM); in test [4], 1 µg/mL (≈ 2.1 µM); in [5] it was 1 µg/mL (≈ 2.1 µM); in test [6], 1 µg/mL (≈ 2.1 µM); in [7] it was 0.25 µg/mL (≈ 0.526 µM). Moreover, 1 µg/mL (≈ 2.1 µM) was the least that counted as inhibitory in test [8] (MIC). This compound also had a 50% effective dose (ED50) in test [2] of 9.1 mg/kg.
With `CC(=O)NC[C@H]1CN(c2ccc(N3CCN(C(C)c4ccc([N+](=O)[O-])s4)CC3)c(F)c2)C(=O)O1` (stereo partly drawn), the MIC in [1] is 2 µg/mL (≈ 4.07 µM); in test [3], 0.5 µg/mL (≈ 1.02 µM); in test [4], 0.5 µg/mL (≈ 1.02 µM); in [5] it was 0.5 µg/mL (≈ 1.02 µM); in [6], 2 µg/mL (≈ 4.07 µM); in [7] it was 0.5 µg/mL (≈ 1.02 µM). The same compound returned an MIC in [8] of 0.5 µg/mL (≈ 1.02 µM). Besides, the ED50 in [2] was > 25 mg/kg.
For the compound `CC(=O)NC[C@H]1CN(c2ccc(N3CCN(C(=O)c4ccc([N+](=O)[O-])o4)CC3)c(F)c2)C(=O)O1`, the minimum inhibitory concentration (MIC) was found to be 2 µg/mL (≈ 4.21 µM) in [1]; 1 µg/mL (≈ 2.1 µM) in [3]; 0.5 µg/mL (≈ 1.05 µM) in test [4]; 1 µg/mL (≈ 2.1 µM) in test [5]; 2 µg/mL (≈ 4.21 µM) in test [6]; 1 µg/mL (≈ 2.1 µM) in test [7]. Besides, the ED50 in test [2] was 8.24 mg/kg.
As for `CC(=O)NC[C@H]1CN(c2ccc(N3CCN(C(=O)c4ccc([N+](=O)[O-])s4)CC3)c(F)c2)C(=O)O1`, the minimal inhibitory concentration (MIC) came out at 0.125 µg/mL (≈ 0.254 µM) in test [1]; 0.5 µg/mL (≈ 1.02 µM) in test [3]; 0.06 µg/mL (≈ 0.122 µM) in test [4]; 0.125 µg/mL (≈ 0.254 µM) in test [5]; 0.5 µg/mL (≈ 1.02 µM) in [6]; 0.5 µg/mL (≈ 1.02 µM) in [7]. This compound showed a minimal inhibitory concentration (MIC) in test [8] of 0.06 µg/mL (≈ 0.122 µM). In addition, in test [2], it took a dose of 9.77 mg/kg to reach the 50% effect level (ED50).
Turning to `CC(=O)NC[C@H]1CN(c2ccc(N3CCN(c4ccc([N+](=O)[O-])o4)CC3)c(F)c2)C(=O)O1`, the minimal inhibitory concentration (MIC) in [1] stood at 4 µg/mL (≈ 8.94 µM); in test [3] it was 8 µg/mL (≈ 17.9 µM); in [4], 8 µg/mL (≈ 17.9 µM); in test [5] it was 16 µg/mL (≈ 35.8 µM); in test [6], 4 µg/mL (≈ 8.94 µM); in [7], 8 µg/mL (≈ 17.9 µM). This compound also returned a minimum inhibitory concentration (MIC) in test [8] of 16 µg/mL (≈ 35.8 µM).
With `CC(=O)NC[C@H]1CN(c2ccc(N3CCN(c4ccc(C#N)s4)CC3)c(F)c2)C(=O)O1`, the MIC in [1] amounted to 0.25 µg/mL (≈ 0.564 µM); in test [3], 2 µg/mL (≈ 4.51 µM); in test [4] it was 2 µg/mL (≈ 4.51 µM); in [5], 4 µg/mL (≈ 9.02 µM); in test [6], 0.5 µg/mL (≈ 1.13 µM); in test [8], 2 µg/mL (≈ 4.51 µM).
As for `CC(=O)NC[C@H]1CN(c2ccc(N3CCN(c4ccc([N+](=O)[O-])s4)CC3)cc2)C(=O)O1`, the MIC in test [1] is 0.5 µg/mL (≈ 1.12 µM); in [3] it was 1 µg/mL (≈ 2.24 µM); in [4], 1 µg/mL (≈ 2.24 µM); in test [5], 2 µg/mL (≈ 4.49 µM); in test [6], 0.5 µg/mL (≈ 1.12 µM); in test [7], 1 µg/mL (≈ 2.24 µM). The compound also gave an MIC in test [8] of 1 µg/mL (≈ 2.24 µM).
Consider `CC(=O)NC[C@H]1CN(c2ccc(N3CCN(Cc4ccc([N+](=O)[O-])s4)CC3)c(F)c2)C(=O)O1`, for which the minimum inhibitory concentration (MIC) turned out to be 1 µg/mL (≈ 2.09 µM) in test [1]; 8 µg/mL (≈ 16.8 µM) in [3]; 8 µg/mL (≈ 16.8 µM) in test [4]; 8 µg/mL (≈ 16.8 µM) in test [5]; 8 µg/mL (≈ 16.8 µM) in test [6]; 8 µg/mL (≈ 16.8 µM) in [7]. The compound also gave an MIC in test [8] of 8 µg/mL (≈ 16.8 µM). In test [2], the 50% effective dose (ED50) was > 25 mg/kg.
With `CC(=O)NC[C@H]1CN(c2ccc(N3CCN(c4ccc(C(C)=O)s4)CC3)c(F)c2)C(=O)O1`, the minimal inhibitory concentration (MIC) in test [1], in [3], in [4], in test [5], in test [6] and in test [7] was > 16 µg/mL throughout. In addition, the MIC in test [8] is > 16 µg/mL.
In the case of `CC(=O)NC[C@H]1CN(c2ccc(N3CCN(c4ccc(C=O)s4)CC3)c(F)c2)C(=O)O1`, the MIC in [1] is 0.5 µg/mL (≈ 1.12 µM); in [3] it was < 0.25 µg/mL; in test [4], 0.5 µg/mL (≈ 1.12 µM); in test [5], 1 µg/mL (≈ 2.24 µM); in [6], 0.5 µg/mL (≈ 1.12 µM); in [7] it was 1 µg/mL (≈ 2.24 µM). In [8], this compound displayed a minimum inhibitory concentration (MIC) of 0.5 µg/mL (≈ 1.12 µM). Moreover, the 50% effective dose (ED50) in test [2] was > 25 mg/kg.
On to `CC(=O)NC[C@H]1CN(c2cc(F)c(N3CCN(c4ccc([N+](=O)[O-])s4)CC3)c(F)c2)C(=O)O1`, for which the MIC in test [1] is 0.5 µg/mL (≈ 1.04 µM); in test [3], 0.25 µg/mL (≈ 0.519 µM); in test [4], 0.25 µg/mL (≈ 0.519 µM); in test [5] it was 0.25 µg/mL (≈ 0.519 µM); in test [6] it was 0.5 µg/mL (≈ 1.04 µM); in [7], 0.25 µg/mL (≈ 0.519 µM). The same compound returned a minimal inhibitory concentration (MIC) in test [8] of 0.25 µg/mL (≈ 0.519 µM). Moreover, in test [2], the ED50 is > 25 mg/kg.
Consider `CC(=O)NC[C@H]1CN(c2ccc(N3CCOCC3)c(F)c2)C(=O)O1` [LINEZOLID], for which the minimum inhibitory concentration (MIC) in [1] and in [7] was 2 µg/mL (≈ 5.93 µM) in each case. This compound also gave a 50% effective dose (ED50) in test [2] of 5.6 mg/kg.
Take `CC(=O)NC[C@H]1CN(c2ccc(N3CCN(Cc4ccc([N+](=O)[O-])o4)CC3)c(F)c2)C(=O)O1.Cl` [RANBEZOLID CHLORIDE]: the minimal inhibitory concentration (MIC) in test [1] stood at 0.125 µg/mL; in test [3], 2 µg/mL; in test [4] it was 2 µg/mL; in [5], 1 µg/mL; in [6], 0.125 µg/mL; in [7], 2 µg/mL. The compound also returned a minimum inhibitory concentration (MIC) in [8] of 1 µg/mL. The same compound yielded an ED50 in test [2] of 4.33 mg/kg.
For the compound `CN[C@H](CC(C)C)C(=O)N[C@H]1C(=O)N[C@@H](CC(N)=O)C(=O)N[C@H]2C(=O)N[C@H]3C(=O)N[C@H](C(=O)N[C@H](C(=O)O)c4cc(O)cc(O)c4-c4cc3ccc4O)[C@H](O)c3ccc(c(Cl)c3)Oc3cc2cc(c3O[C@@H]2O[C@H](CO)[C@@H](O)[C@H](O)[C@H]2O[C@H]2C[C@](C)(N)[C@H](O)[C@H](C)O2)Oc2ccc(cc2Cl)[C@H]1O` [VANCOMYCIN], in test [12], the ED50 is 8.8 mg/kg. Besides, the minimal inhibitory concentration (MIC) in test [6] is 0.5 µg/mL (≈ 0.345 µM); in test [7], > 16 µg/mL.
